{
  "source": "patent US9643988B2",
  "about": "“Compounds having low ionization energy” (THE ARIZONA BOARD OF REGENTS ON BEHALF OF THE UNIVERSITY OF …, priority 2013, dated 2017)",
  "key": {"[1]": {"details": "cited from earlier work"}, "[2]": {"test": "Gas-phase photoelectron spectroscopy (PES) of the δ bond ionization", "assay_type": "physicochemical", "details": "for onset ionization energy (IEonset, PESonset): first ionization band; for vertical ionization energy (VIE, PESvertical): position of main Gaussian peak", "procedure": "The gas-phase PES of W2(TMhpp)4 and W2(TEhpp)4 were recorded using an instrument that features a 36-cm radius, 8-cm gap hemispherical analyzer, and custom-designed excitation source, sample cells, detection and control electronics, and methods that have been described, for example, in Rev. Sci. Instrum. 1986, 57, 2366 and J. Am. Chem. Soc. 1998, 120, 3382-3386. The temperature was monitored using a “K”-type thermocouple passed through a vacuum feed through and attached directly to the sample cell. Samples of W2(TMhpp)4 and W2(TEhpp)4 were loaded into stainless steel cells and placed in the instrument using rigorous air-sensitive techniques. The data collection focused on determining the δ bond ionization energy. To avoid decomposition in the sample chamber of the cell, ampoules containing the samples were broken off and placed directly in the ionization chamber.\nComplete spectra were collected every few minutes.\nThe ^2P3/2 peak of argon at 15.76 eV ionization energy is typically used for internal energy calibration, but over the course of the experiment sensitivity to the ^2P3/2 peak of Ar was lost. This often happens with molecules that are strong reductants, presumably because of the very large change in work function of the spectrometer when the sample condenses on the spectrometer surfaces. At this point the lamp was adjusted to emit He II photons in addition to He I photons. This allowed observation of the He self-ionization (by He II photons) at an apparent binding energy of 4.99 eV in the He I spectrum. This very sharp line is a convenient internal energy calibrant and is preferable for the calibration of low-energy ionizations. The resolution, as measured by the Ar peak before it was no longer visible, was approximately 0.030 eV. The resolution for the W2(TMhpp)4 and W2(TEhpp)4 experiments, as measured by the He self-ionization, was 71 meV and 88 meV, respectively. Over the course of two separate data collections of W2(TMhpp)4, approximately 800 counts of the full He I spectrum (Graphic S1) and an additional 400 counts of a close-up on the δ bond ionization were collected. For W2(TEhpp)4 approximately 400 counts of the δ bond ionization were collected.\nThe ionization bands are represented analytically with asymmetric Gaussian peaks. As is typical for the first ionization bands of M2(hpp)4 molecules, a weak shoulder is observed on the high ionization energy side of the peak that necessitates the use of a second asymmetric Gaussian component to reasonably account for the total contour of the ionization intensity. The additional ionization intensity on the high ionization energy side of the first band is ascribed to the different puckered conformations that the hpp ligands can adopt in the molecules. […]"}, "[3]": {"test": "Solubility in dry organic solvents", "assay_type": "physicochemical"}, "[4]": {"details": "reported value for comparison, cited from earlier work; for reported E1/2 / observed peak position for W2^5+/4+: THF"}, "[5]": {"details": "comparison value; cited from earlier work"}, "[6]": {"test": "Differential pulse voltammetry in THF vs Ag/AgCl", "assay_type": "physicochemical", "details": "DPV peak", "procedure": "^1H NMR spectra were recorded on a Mercury 300 spectrometer with chemical shifts referenced to the protonated solvent residue. Mass spectrometry data (electrospray ionization, ESI) were recorded at the Laboratory for Biological Mass Spectrometry at Texas A&M University using an MDS Series Qstar Pulsar with a spray voltage of 5 kV. Elemental analyses were performed by Robertson Microlit Laboratories, Inc., Madison, N.J. on crystalline samples that were previously washed with cold hexanes and dried overnight under vacuum. Infrared spectra were recorded in a Perkin-Elmer 16PC FT IR spectrophotometer using KBr pellets. Electronic spectra were recorded on a Shimadzu UV-2501 PC spectrophotometer. The differential pulse voltammograms were collected using a CH Instruments model-CHI620A electrochemical analyzer in a 0.1 M Bu^n4NPF6 solution in THF, using Pt working and auxiliary electrodes, a Ag/AgCl reference electrode, and a scan rate of 100 mV/s. All potential values are referenced to the Ag/AgCl electrode, and under the present experimental conditions, the E1/2 for the Fc^+/Fc couple consistently occurred at +440 mV."}, "[7]": {"details": "vacuum"}, "[8]": {"test": "Ionization energies of comparison substances", "assay_type": "physicochemical", "details": "difference versus compounds 3 and 4"}, "[9]": {"test": "Literature potentials and solvation energy of comparison substances", "assay_type": "physicochemical", "details": "difference versus compounds 3 and 4"}, "[10]": {"details": "common dry solvents such as THF, toluene, and benzene"}, "[11]": {"details": "non-halogenated, non-protonated solvents such as THF, toluene, benzene and even hexanes"}},
  "note": "Values joined by “and” are separate entries in the source; they are usually repeats but may differ in a detail not shown here. Equal entries are not always repeated. Where two headings read alike, the source gives them in different places.",
  "data": [
    {"compound": "[K]", "note": "[K, potassium]", "values": [
      {"measurement": "E1/2, literature", "setting": "[1]; in THF", "result": "−2.66", "unit": "V"}
    ]},
    {"compound": "C1CN2CCC[N+]3=C2[N](C1)[W-2]124[N]5CCCN6CCC[N+](=C65)[W-2]31([N+]1=C3N(CCC[N]32)CCC1)[N+]1=C2N(CCC[N]24)CCC1", "note": "[W2(hpp)4, reference compound]", "values": [
      {"measurement": "onset ionization energy (IEonset, PESonset)", "setting": "[2]", "result": "3.51 eV and 3.51±0.05 eV"},
      {"measurement": "vertical ionization energy (VIE, PESvertical)", "setting": "[2]", "result": 3.76, "unit": "eV"},
      {"measurement": "solubility", "setting": "[3]; non-reactive organic solvents", "result": "poor solubility"},
      {"measurement": "reported E1/2 / observed peak position for W2^5+/4+", "setting": "[4]", "result": "−1.81", "unit": "V"},
      {"measurement": "reported E1/2 for W2^6+/5+", "setting": "[4]", "result": "−0.97", "unit": "V"}
    ]},
    {"compound": "C1CN=C2[N-]CCCN2C1.C1CN=C2[N-]CCCN2C1.C1CN=C2[N-]CCCN2C1.C1CN=C2[N-]CCCN2C1.FC(F)(F)c1cc([B-](c2cc(C(F)(F)F)cc(C(F)(F)F)c2)(c2cc(C(F)(F)F)cc(C(F)(F)F)c2)c2cc(C(F)(F)F)cc(C(F)(F)F)c2)cc(C(F)(F)F)c1.FC(F)(F)c1cc([B-](c2cc(C(F)(F)F)cc(C(F)(F)F)c2)(c2cc(C(F)(F)F)cc(C(F)(F)F)c2)c2cc(C(F)(F)F)cc(C(F)(F)F)c2)cc(C(F)(F)F)c1.[W+3]#[W+3]", "note": "[W2(hpp)4^2+ (TFPB^−)2]", "values": [
      {"measurement": "reported E1/2 / observed peak position for W2^5+/4+", "setting": "[4]", "result": "−1.81", "unit": "V"}
    ]},
    {"compound": "[Cs]", "note": "[cesium]", "values": [
      {"measurement": "ionization energy (IE)", "setting": "[5]", "result": 3.89, "unit": "eV"}
    ]},
    {"compound": "CC1(C)CN2CC(C)(C)C[N+]3=C2[N](C1)[W-2]124([Cl])[N]5CC(C)(C)CN6CC(C)(C)C[N+](=C65)[W-2]31([Cl])([N+]1=C3N(CC(C)(C)C[N]32)CC(C)(C)C1)[N+]1=C2N(CC(C)(C)C[N]24)CC(C)(C)C1", "note": "[compound 1, W2(TMhpp)4Cl2]", "values": [
      {"measurement": "E1/2(1), W2^6+/5+ process", "setting": "[6]", "result": "−0.99", "unit": "V"},
      {"measurement": "E1/2(2), W2^5+/4+ process", "setting": "[6]", "result": "−1.84", "unit": "V"}
    ]},
    {"compound": "CCC1(CC)CN2CC(CC)(CC)C[N+]3=C2[N](C1)[W-2]124([Cl])[N]5CC(CC)(CC)CN6CC(CC)(CC)C[N+](=C65)[W-2]31([Cl])([N+]1=C3N(CC(CC)(CC)C[N]32)CC(CC)(CC)C1)[N+]1=C2N(CC(CC)(CC)C[N]24)CC(CC)(CC)C1", "note": "[compound 2, W2(TEhpp)4Cl2]", "values": [
      {"measurement": "E1/2(1), W2^6+/5+ process", "setting": "[6]", "result": "−0.99", "unit": "V"},
      {"measurement": "E1/2(2), W2^5+/4+ process", "setting": "[6]", "result": "−1.90", "unit": "V"}
    ]},
    {"compound": "W2(TEhpp)4 [compound 4]", "values": [
      {"measurement": "onset ionization energy (IEonset, PESonset)", "setting": "[2]", "result": "3.40±0.05", "unit": "eV"},
      {"measurement": "vertical ionization energy (VIE, PESvertical)", "setting": "[2]", "result": "3.71±0.03", "unit": "eV"},
      {"measurement": "solubility properties compared to decamethylcobaltocene", "setting": "[3]", "result": "compare very favorably"},
      {"measurement": "solubility", "setting": "[3]; [10]", "result": "very soluble"},
      {"measurement": "solubility", "setting": "[3]; hexanes", "result": "significantly more soluble"},
      {"measurement": "solubility", "setting": "[3]; [11]", "result": "very soluble"},
      {"measurement": "decomposition during PES measurement", "setting": "[7]; 317-340° C., about 1 h", "result": "In neither case was there any evidence of decomposition"},
      {"measurement": "decomposition during PES measurement", "setting": "[7]; 317-340° C., about 1 h, listed as W2(TEhpp)4", "result": "without evidence of decomposition"}
    ]},
    {"compound": "W2(TMhpp)4 [compound 3]", "values": [
      {"measurement": "solubility properties compared to decamethylcobaltocene", "setting": "[3]", "result": "compare very favorably"},
      {"measurement": "solubility", "setting": "[3]; [10]", "result": "very soluble"},
      {"measurement": "solubility", "setting": "[3]; hexanes", "result": "Some solubility"},
      {"measurement": "solubility", "setting": "[3]; [11]", "result": "very soluble"},
      {"measurement": "decomposition during PES measurement", "setting": "[7]; 216 to 271° C., 2½ h", "result": "In neither case was there any evidence of decomposition"},
      {"measurement": "decomposition during PES measurement", "setting": "[7]; 216 to 271° C., 2½ h, listed as W2(TMhpp)4", "result": "without evidence of decomposition"}
    ]},
    {"compound": "decamethylcobaltocene [(Cp*)2Co]", "values": [
      {"measurement": "ionization energy greater than that of compounds 3 and 4", "setting": "[8]", "result": "more than 1 eV"},
      {"measurement": "oxidation potential less negative than that of compounds 3 and 4", "setting": "[9]", "result": "approximately 0.4 V"},
      {"measurement": "ionization energy (IE)", "setting": "[5]", "result": 4.705, "unit": "eV"},
      {"measurement": "oxidation potential", "setting": "[1]; comparison value", "result": "−1.47", "unit": "V"}
    ]}
  ]
}
